“Also recorded” adds a separate entry of the source.
Experiment: Examination on Stability (storage at 60° C. and 80% RH for 21 days, state of sample)
Type: physicochemical
Conditions: glass vessel with lid opened (1-1 to 1-3) or closed glass bottle = tight package (1-4)
Excerpt: Examination on Stability […] […] Pemafibrate as it was placed in a glass vessel with a lid opened and labeled as Sample 1-1. […] Ethylcellulose ([…] Co., Ltd.) was mixed with pemafibrate in a ratio of 1 part by mass to 1 part by mass of pemafibrate to obtain a mixture. […] Ethylcellulose ([…] Co., Ltd.) was mixed with pemafibrate in a ratio of 1 part by mass to 1 part by mass of pemafibrate to obtain a mixture.

## CC[C@@H](Oc1cccc(CN(CCCOc2ccc(OC)cc2)c2nc3ccccc3o2)c1)C(=O)O [Sample 1-1, (2R)-2-[3-([1,3-Benzoxazol-2-yl[3-(4-methoxyphenoxy)propyl]amino]methyl)phenoxy]butanoic acid]
After 21 days of storage
  State of mixture, 21 days later: maintained the same state; also recorded: White powder
Start of storage
  State of mixture, immediately after the start of storage: White powder
